# Test results from patent publication US9945843B2, “Methods for identifying compounds that inhibit G protein-coupled receptor (GPR84) agonist-stimulated chemotaxis” (GALAPAGOS NV, priority 2011, dated 2018).
# Key:
# GPR84 [1] = target: T1, GPR84 (Homo sapiens, UniProt Q9NQS5); experiment: Human neutrophil migration inhibition assay, Embelin as chemotactic agent; assay type: cell-based; details: for induction of neutrophil chemotaxis: GPR84 agonist used as chemotactic agent; for inhibition at 0.1 µM / inhibition at 1 µM / inhibition at 10 µM: 5 μM Embelin; for inhibition at 0.1 µM: compound 0.1 μM, read-out: Percentage of chemotaxis inhibition (PIN) @ 0.1 μM; for inhibition at 1 µM: compound 1 μM, read-out: Percentage of chemotaxis inhibition (PIN) @ 1 μM; for inhibition at 10 µM: compound 10 μM, read-out: Percentage of chemotaxis inhibition (PIN) @ 10 μM; for IC50: human neutrophils, Embelin as chemotactic agent, read-out: Embelin-induced neutrophil chemotaxis IC50
# GPR84 [2] = target: T1, GPR84; design: expressed in transfected cells; details: Wang 2006; WO 2007/027661; cited from earlier work
# GPR84 [3] = target: T1, GPR84; experiment: Functional GPR84 activation assay: GTP-γS binding assay; assay type: biochemical; design: expressed in transfected cells; details: membranes over expressing GPR84; 3,3′ di indolylmethane at EC80; read-out: GTPgS binding EC50
# Method: The following assay can be used for determination of GPR84 activation.
# The assay is performed in a 96 well plate where the following reagents were added. […] In a last step, 30 μL of a mixture consisting of membranes-GTPγS-SpA beads is added [mixture consists of 20 μg/well membranes derived from stable cell line over expressing GPR84 (membranes are pre-incubated with 0.1 μM GDP for 15 min at 4° C.), 0.1 nM [^35S]GTPγS (Perkin Elmer, NEG030) and 0.5 mg/well PVT-WGA SpA beads (Perkin Elmer, RPNQ0001)]. All components are diluted in assay buffer containing 20 mM Hepes pH 7.4; 5 mM MgCl2; 250 mM NaCl; 0.05% BSA; 75 ug/mL saponin. Reactions are incubated for 90 min at room temperature followed by centrifugation at 2000 rpm for 15 min. Plates are read on a Topcount reader (Perkin Elmer) immediately after centrifugation (readout time, 1 min/well).
# [4] = system: IL8-stimulated chemotaxis of neutrophils; experiment: Human neutrophil migration assay, IL8 as chemotactic agent; details: for inhibition at 0.1 µM: read-out: Percentage of chemotaxis inhibition (PIN) @ 0.1 μM; for inhibition at 1 µM: read-out: Percentage of chemotaxis inhibition (PIN) @ 1 μM; for inhibition at 10 µM: read-out: Percentage of chemotaxis inhibition (PIN) @ 10 μM
# Method: In the neutrophil migration assay, neutrophils, freshly isolated from buffy coats from human volunteers, are treated with a compound for 30 minutes. Subsequently, the neutrophils are transferred to the upper wells of a Corning HTS transwell 96 permeable support system, of which the lower wells are filled with a Embelin solution.
# A human buffy coat is diluted with an equal volume of ice cold DPBS. 20 mL of the diluted buffy coat was gently mixed with 4 mL of ACD buffer (140 mM citric acid, 200 mM sodium citrate and 220 mM dextrose). Then, 12 mL of the 6% dextran/0.9% NaCl solution (15 g dextran T2000 and 2.25 g NaCl dissolved in 250 mL H2O) is added to the mixture and the samples are inverted gently up to 20 times. The total volume is transferred to a new recipient and incubated at room temperature for 1 h for complete separation of the two phases to occur. The yellowish supernatant is then transferred to a clean centrifugation tube and centrifuged for 12 minutes at 1300 rpm and 4° C. After centrifugation, the supernatant is discarded and the remaining cell pellet is rapidly resuspended in 12 mL of ice-cold H2O for red blood cell lysis to occur. After 20 seconds, 4 mL of ice-cold 0.6 M KCl is added.
# A cell suspension of 8.9×10^6 cells per milliliter is prepared. 20 μL of compound solution in chemotaxis buffer is added to 180 μL cell suspension. The mixture is incubated at 37° C. for 30 minutes with intermediate resuspension of the cells after 15 minutes. […] The receiver well of the transwell system is then filled with 200 μL chemotaxis buffer containing compound and chemotactic agent (Embelin). After incubation at 37° C. in 5% CO2 for 1 h, the upper plate of the transwell system was removed and the cell suspension in the receiver plate is transferred to a 96-well V-bottom plate. 50 μL of DPBS is added to the receiver plate to prevent remaining cells from drying out. The V-bottom plate is centrifuged for 6 minutes at 1500 rpm. The supernatant is removed and the cells are resuspended in 50 μL DPBS. The cells are then transferred back to the receiver plate of the transwell system. […] The plate is incubated for 10 minutes in the dark, while shaking. 170 μL of cell lysate is then transferred to a white 96-well plate and luminescence is measured. The detected luminescent signal is considered as linearly related to the number of cells having migrated from the upper well to the receiver well.
# The same assay as described above is also performed using IL8 (25 ng/mL) as a chemotactic agent instead of Embelin.
# [5] = system: tobacco smoke-induced pulmonary inflammation; experiment: Mouse tobacco smoke model; assay type: in vivo; details: C57BL/6J mice, 4 daily tobacco smoke exposures; data not shown
# Excerpt: To investigate test compounds, animals are divided into several groups: intact (no treatment, n=5), diseased (TS; vehicle alone, n=10), Roflumilast as reference (TS; Roflumilast n=10), and the test compound (TS; […]=10). […] At the end of 4 days, the numbers of macrophages, epithelial cells, neutrophils and lymphocytes are counted in the BAL. BAL was further analyzed for gene expression and protein level. Lung tissue is dissected for histological analysis, gene expression and protein level measurement.
# [6] = system: RAW264.7 murine macrophage-like cells; details: RAW264.7 cells stimulated with LPS; cited from earlier work
# [7] = system: chronic DSS-induced colitis; experiment: Mouse chronic DSS-induced inflammatory bowel disease model; assay type: in vivo; details: female BALB/c mice, p.o., data not shown
# Excerpt: The compounds identified using the assay method described in Example 2, or others herein, can be further validated in vivo using known disease models. The mouse chronic DSS-induced inflammatory bowel disease model (IBD) is a well validated disease model for inflammatory bowel disease (Wirtz S. et al., 2007 Nature Protocols 2, 541-546; Sina C. et al., 2009 J. Immunol 183 7514-7522).
# To induce a chronic colitis, female BALB/c mice are fed with 4% dextran sodium sulfate (DSS) dissolved in drinking water for 4 days, followed by 3 days of regular drinking water. This cycle is repeated three times. This protocol allows inducing a strong colitis while avoiding high mortality rates. Animals are divided into several groups: • intact (water; vehicle alone, n=10), • diseased (DSS; vehicle alone, n=10), • sulfazalazine used as reference (DSS; sulfazalazine, p.o., n=10) and • the tested compound (DSS; test cpd, p.o., n=10).
# Clinical parameters are measured every other day. The disease activity index (DAI) is a composite measure combining of the individual scores for weight loss, stool consistency and rectal bleeding. Mice are sacrificed at day 20 of the experiment according to the protocol introduced by Sina et al. (2009). At sacrifice time, the complete colon is removed and rinsed with sterile PBS. […]
# T1 sequence (Q9NQS5 whole entry): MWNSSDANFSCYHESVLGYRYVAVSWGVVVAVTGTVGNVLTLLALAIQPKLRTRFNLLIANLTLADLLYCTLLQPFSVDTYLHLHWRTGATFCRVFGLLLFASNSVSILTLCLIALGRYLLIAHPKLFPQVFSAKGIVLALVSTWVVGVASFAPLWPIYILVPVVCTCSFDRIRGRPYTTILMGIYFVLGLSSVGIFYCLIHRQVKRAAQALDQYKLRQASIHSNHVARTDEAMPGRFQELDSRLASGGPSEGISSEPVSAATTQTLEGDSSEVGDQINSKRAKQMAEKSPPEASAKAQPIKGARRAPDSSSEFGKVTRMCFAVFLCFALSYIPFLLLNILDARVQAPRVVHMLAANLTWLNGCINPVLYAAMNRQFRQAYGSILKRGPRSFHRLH
induction of neutrophil chemotaxis (GPR84 [1]),inhibition at 0.1 µM (GPR84 [1]),inhibition at 1 µM (GPR84 [1]),inhibition at 10 µM (GPR84 [1]),IC50 (GPR84 [1]),EC50 (GPR84 [3]),Compound,GPR84 agonist activity (GPR84 [2]),inhibition at 0.1 µM [4],inhibition at 1 µM [4],inhibition at 10 µM [4],percentage inhibition of neutrophil counts in BAL [5],secretion of interleukin-12 p40 subunit (IL-12 p40) [6],effect against chronic inflammatory bowel disease [7]
induce neutrophil chemotaxis,–,–,–,–,–,"c1ccc2c(Cc3c[nH]c4ccccc34)c[nH]c2c1 [3,3′ di indolylmethane, reference compound]",some GPR84 agonist activity,–,–,–,–,–,–
–,69%,86%,89%,10.4 nM,36 nM,"O=c1nc(OCC2COCCO2)cc2n1CCc1cc(OCc3noc(C4CC4)n3)ccc1-2 (stereo not drawn) [Cpd 1, 9-(5-Cyclopropyl-[1,2,4]oxadiazol-3-ylmethoxy)-2-([1,4]dioxan-2-ylmethoxy)-6,7-dihydro-pyrimido[6,1-a]isoquinolin-4-one]",–,1%,-11%,17%,–,–,–
–,86%,94%,90%,2.74 nM,40 nM,"CCCC(O)C#Cc1ccc2c(c1)CCn1c-2cc(OCC2COCCO2)nc1=O (stereo not drawn) [Cpd 2, 2-([1,4]Dioxan-2-ylmethoxy)-9-(3-hydroxy-hex-1-ynyl)-6,7-dihydro-pyrimido[6,1-a]isoquinolin-4-one]",–,13%,-6%,20%,–,–,–
–,38%,81%,72%,6.34 nM,25 nM,"O=c1nc(OCC2COCCO2)cc2n1CCc1cc(C#CCNc3ccccc3)ccc1-2 (stereo not drawn) [Cpd 3, 2-([1,4]Dioxan-2-ylmethoxy)-9-(3-phenylamino-prop-1-ynyl)-6,7-dihydro-pyrimido[6,1-a]isoquinolin-4-one]",–,2%,1%,-13%,–,–,–
–,–,–,–,–,–,"O=c1nc(OCC2COCCO2)cc2n1CCc1cc(COC3CCCC3)ccc1-2 (stereo not drawn) [Cpd 4, 9-Cyclopentyloxymethyl-2-([1,4]dioxan-2-ylmethoxy)-6,7-dihydro-pyrimido[6,1-a]isoquinolin-4-one]",–,3%,3%,19%,–,–,–
–,73%,97%,96%,62.2 nM,77 nM,"CC(C)C#Cc1ccc2c(c1)CCn1c-2cc(OC[C@@H]2COCCO2)nc1=O [Cpd 5, 2-((S)-1-[1,4]Dioxan-2-ylmethoxy)-9-(3-methyl-but-1-ynyl)-6,7-dihydro-pyrimido[6,1-a]isoquinolin-4-one]",–,30%,29%,48%,–,–,–
–,–,–,–,–,–,"O=c1nc(OC[C@H]2COCCO2)cc2n1CCc1cc(COC3CCCC3)ccc1-2 [Cpd 6, 9-Cyclopentyloxymethyl-2-((R)-1-[1,4]dioxan-2-ylmethoxy)-6,7-dihydro-pyrimido[6,1-a]isoquinolin-4-one]",–,20%,15%,35%,–,–,–
–,54%,90%,81%,83.4 nM,41 nM,"O=c1nc(OCC2COCCO2)cc2n1CCc1cc(CCC(O)c3cccnc3)ccc1-2 (stereo not drawn) [Cpd 7, 2-([1,4]Dioxan-2-ylmethoxy)-9-(3-hydroxy-3-pyridin-3-yl-propyl)-6,7-dihydro-pyrimido[6,1-a]isoquinolin-4-one]",–,18%,22%,13%,–,–,–
–,52%,95%,103%,41.4 nM,69 nM,"CCC(C)(C)CNc1ccc2c(c1)CCn1c-2cc(OC[C@@H]2COCCO2)nc1=O [Cpd 8, 9-(2,2-Dimethyl-butylamino)-2-((S)-1-[1,4]dioxan-2-ylmethoxy)-6,7-dihydro-pyrimido[6,1-a]isoquinolin-4-one]",–,9%,15%,55%,–,–,–
–,64%,94%,88%,40.8 nM,75 nM,"O=c1nc(OC[C@@H]2COCCO2)cc2n1CCc1cc(OCC3CCCCO3)ccc1-2 (stereo partly drawn) [Cpd 9, 2-((S)-1-[1,4]Dioxan-2-ylmethoxy)-9-(tetrahydro-pyran-2-ylmethoxy)-6,7-dihydro-pyrimido[6,1-a]isoquinolin-4-one]",–,25%,28%,24%,–,–,–
–,71%,87%,80%,9.3 nM,8 nM,"O=c1nc(OC[C@@H]2COCCO2)cc2n1CCc1cc(CCCNc3ccccc3)ccc1-2 [Cpd 10, 2-((S)-1-[1,4]Dioxan-2-ylmethoxy)-9-(3-phenylamino-propyl)-6,7-dihydro-pyrimido[6,1-a]isoquinolin-4-one]",–,13%,7%,24%,–,–,–
–,66%,90%,86%,3.9 nM,–,"CC(O)CCCc1ccc2c(c1)CCn1c-2cc(OC[C@@H]2COCCO2)nc1=O (stereo partly drawn) [Cpd 11, 2-((S)-1-[1,4]Dioxan-2-ylmethoxy)-9-(4-hydroxy-pentyl)-6,7-dihydro-pyrimido[6,1-a]isoquinolin-4-one]",–,7%,0%,12%,–,–,–
induce neutrophil chemotaxis,–,–,–,–,–,"CCCCCCCCCCCC1=C(O)C(=O)C=C(O)C1=O [Embelin, 2,5-dihydroxy-3-undecyl-2,5-cyclohexadiene-1,4-dione, reference compound]",some GPR84 agonist activity,–,–,–,–,–,–
–,–,–,–,–,–,O=C(Nc1c(Cl)cncc1Cl)c1ccc(OC(F)F)c(OCC2CC2)c1 [Roflumilast],–,–,–,–,around 60%,–,–
–,–,–,–,–,–,CCCCCCCCCC(=O)O [capric acid],–,–,–,–,–,dose-dependently increased,–
–,–,–,–,–,–,CCCCCCCCCCCC(=O)O [lauric acid],–,–,–,–,–,dose-dependently increased,–
–,–,–,–,–,–,O=C(O)c1cc(/N=N/c2ccc(S(=O)(=O)Nc3ccccn3)cc2)ccc1O [sulfazalazine],–,–,–,–,–,–,protective effect
–,–,–,–,–,–,CCCCCCCCCCC(=O)O [undecanoic acid],–,–,–,–,–,dose-dependently increased,–

Compound,induction of neutrophil chemotaxis (GPR84 [1]),inhibition at 0.1 µM (GPR84 [1]),inhibition at 1 µM (GPR84 [1]),inhibition at 10 µM (GPR84 [1]),IC50 (GPR84 [1]),EC50 (GPR84 [3]),GPR84 agonist activity (GPR84 [2]),inhibition at 0.1 µM [4],inhibition at 1 µM [4],inhibition at 10 µM [4],percentage inhibition of neutrophil counts in BAL [5],secretion of interleukin-12 p40 subunit (IL-12 p40) [6],effect against chronic inflammatory bowel disease [7]
"CCCCCCCCCC(=O)[O-].[Na+] [sodium decanoate, reference compound]",induce neutrophil chemotaxis,–,–,–,–,–,–,–,–,–,–,–,–
